Here are results for 6 compounds from patent US10369131B2, “Ultrapure tetrahydrocannabinol-11-oic acids” (Corbus Pharmaceuticals, Inc., priority 2013, dated 2019).

One series has as its system HL-60 cells. In words: PGJ synthesis in HL-60 cells (ELISA). The class given is cell-based. The method, then:
The CB2 antagonist SR144528 reduced ultrapure AJA-induced PGJ synthesis in HL60 immune system cells at low concentrations (squares). […] DMSO control (open circles). Treatments of cells was carried out in 48 well plates with 20,000 cells/500 μl RPMI/FCS media/well. Cells were incubated for 20 hrs at 37° C. and 5% CO2. Media was changed to 500 μl of serum free RPMI and TNFα (10 nM) added. […] N=4.
For orientation: An ELISA detects its analyte on a solid surface through an enzyme-linked reagent.

In the next series the test system is tumor growth. As to conditions: doses in the anti-inflammatory range, compared with THC; cited from earlier work.
The conditions of series [1]: rat, at peak pharmacodynamic time points; cited from earlier work.
Series [2] concerns neuropathic pain patients. The note with it: man, cited from earlier work.
In a further series the target is CB1 receptor (Homo sapiens, UniProt P21554). As to conditions: earlier ajulemic acid synthesis products, literature; cited from earlier work.
The subject of series [3] is female CD-1 mice. The note with it: oral; AJA reported in U.S. Pat. No. 5,338,753; cited from earlier work.
In series [4] the test system is female CD-1 mice. The experiment in a line: Mouse hot plate test for antinociception. The class given is in vivo. As to conditions: 60 min after administration.
The subject of series [5] is female CD-1 mice. In words: Ring immobility (catalepsy) test. The procedure: The cataleptic response was measured using the ring test described by Pertwee (Pertwee R G, The Ring Test. A Quantitative Method of Assessing the Cataleptic Effect of Cannabis in Mice, Br. J. Pharmacol. 46:753-763 (1972)). Mice were placed on a horizontal wire ring 5.5 cm in diameter attached to a 16 cm vertical rod. The hind paws and fore paws were placed at opposite sides of the ring. The ambient temperature was maintained at 30° C. and the environment was free of auditory stimuli and bright lights. The response was calculated as the fraction of time the mouse was immobile over a five (5) minute test period.
A dose response was conducted for ultrapure AJA to oral doses of 0.05 to 56 mg/kg.
(§1) Compounds were administered at a volume of […] via oral gavage.
(§2) Female CD-1 mice (20-25 g), obtained from Charles River (Raleigh, N.C.), were used for assessment in hot plate nociception, rectal temperature, and ring immobility assays. Separate mice were used for testing each dose of each compound in this battery of procedures. The mice had free access to food and water when in their home cages. All animals were kept in a temperature-controlled (20-22° C.) environment with a 12-hour light-dark cycle (lights on at 7 a.m.).
Each mouse was tested in a battery of three tests, in which cannabinoid CB1 agonists produce in vivo effects in mice (Martin et al., 1991): antinociception (hot plate assay), decreased rectal temperature and ring immobility. Prior to administration of the test compound, rectal temperature and baseline latency in the hot plate test were measured in the mice. The latter procedure involved placing the mouse on a heated surface (mouse cold/hot plate analgesia apparatus; Stoelting, Wood Dale, Ill.) at a setting of 55° C. Time until the mouse lifts or licks a paw was measured, whereupon the mouse was removed from the apparatus. […] After measurement of baseline temperature and hot plate latency, mice were administered vehicle or drug via oral gavage. […] Subsequently, the mice were placed on a 5.5 cm ring attached at a height of 16 cm to a ring stand, and the amount of time the animals remained motionless during a 5 min period was recorded. In addition, the number of times the mouse fell or jumped off the ring was recorded. If the mouse fell off the ring more than 5 times, the test was terminated.
Rectal temperature values were expressed as the difference between control temperature (before injection) and temperature following drug administration (Δ° C.). Antinociception was expressed as the percent maximum possible effect (MPE) using a 30-s maximum test latency as follows: [(test−control)/(30−control)]×100. During assessment for catalepsy, the total amount of time (in seconds) that the mouse remained motionless on the ring apparatus (except for breathing and whisker movement) was measured and was used as an indication of catalepsy-like behavior. This value was divided by 300 s and multiplied by 100 to obtain a percent immobility. If the mouse fell off the ring more than 5 times, the test was terminated and ring immobility data for the mouse were not included in analysis. Separate between-subjects ANOVAs were used to analyze each measure. Significant differences from control (vehicle) were further analyzed with Tukey post hoc tests (α=0.05) as necessary.

In series [6] the test system is female CD-1 mice. The experiment in a line: Rectal temperature (mouse hypothermia assay). The method, then:
as §1, §2
Each mouse was tested in a battery of three tests, in which cannabinoid CB1 agonists produce in vivo effects in mice (Martin et al., 1991): antinociception (hot plate assay), decreased rectal temperature and ring immobility. Prior to administration of the test compound, rectal temperature and baseline latency in the hot plate test were measured in the mice. The latter procedure involved placing the mouse on a heated surface (mouse cold/hot plate analgesia apparatus; Stoelting, Wood Dale, Ill.) at a setting of 55° C. Time until the mouse lifts or licks a paw was measured, whereupon the mouse was removed from the apparatus. […] Subsequently, the mice were placed on a 5.5 cm ring attached at a height of 16 cm to a ring stand, and the amount of time the animals remained motionless during a 5 min period was recorded. In addition, the number of times the mouse fell or jumped off the ring was recorded. […]
Rectal temperature values were expressed as the difference between control temperature (before injection) and temperature following drug administration (Δ° C.). Antinociception was expressed as the percent maximum possible effect (MPE) using a 30-s maximum test latency as follows: [(test−control)/(30−control)]×100. During assessment for catalepsy, the total amount of time (in seconds) that the mouse remained motionless on the ring apparatus (except for breathing and whisker movement) was measured and was used as an indication of catalepsy-like behavior. […]

The mark [7] stands for this setting: oral 30 and 100 mg/kg (both doses), vs vehicle, p<0.05.

Where only a bound is given, the exact number is not on record here.

Sequence of CB1 receptor (P21554 whole entry): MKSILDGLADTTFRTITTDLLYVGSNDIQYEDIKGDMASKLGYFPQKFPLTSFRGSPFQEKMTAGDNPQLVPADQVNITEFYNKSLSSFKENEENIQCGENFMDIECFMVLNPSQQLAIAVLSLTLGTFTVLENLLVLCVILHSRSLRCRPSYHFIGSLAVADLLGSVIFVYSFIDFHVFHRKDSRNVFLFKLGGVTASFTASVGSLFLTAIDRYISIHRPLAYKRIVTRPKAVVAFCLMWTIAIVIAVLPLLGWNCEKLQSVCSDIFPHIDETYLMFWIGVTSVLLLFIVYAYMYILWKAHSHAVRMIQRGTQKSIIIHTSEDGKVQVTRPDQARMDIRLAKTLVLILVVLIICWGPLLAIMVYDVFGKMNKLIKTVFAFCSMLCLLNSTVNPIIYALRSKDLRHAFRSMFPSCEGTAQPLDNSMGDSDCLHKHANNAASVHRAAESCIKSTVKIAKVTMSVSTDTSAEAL

SR144528: the “effect of CB2 antagonist on ultrapure AJA-induced PGJ synthesis” value with HL-60 cells was “reduced”.

Consider `CCCCCCC(C)(C)c1cc(O)c2c(c1)OC(C)(C)[C@@H]1CC=C(C(=O)O)C[C@@H]21` [AJA, (6aR,10aR)-3-(1′,1′-dimethylheptyl)-Δ8-tetrahydro-cannabinol-9-carboxylic acid], for which, in the series on tumor growth, the “inhibition of tumor growth” value was “small but significant inhibition of tumor growth greater than that produced by THC”. In addition, in [1], the “brain levels relative to those seen in the plasma” value is 25-30%. Also, in series [2] (neuropathic pain patients), the “cannabis-like psychotropic adverse events” value was “absence”. Besides, the “pain scores in neuropathic pain patients” value in series [2] is “reduce pain scores”.

For `Cc1c(C(=O)NN2CCCCC2)nn(-c2ccc(Cl)cc2Cl)c1-c1ccc(Cl)cc1` [SR141716], in the series on HL-60 cells (antagonist 10 μM, 2 hrs), the “effect of CB1 antagonist on ultrapure AJA-induced PGJ synthesis” value is on record as “much smaller effect”.

Turning to `CCCCCCC(C)(C)c1cc(O)c2c(c1)OC(C)(C)[C@@H]1CC=C(C(=O)O)C[C@@H]21` [HU-239], the “ratio of CB1/CB2 binding” value at CB1 receptor is listed as 0.19. Further, the “doses at which active in the mouse hot plate assay” value in the series on female CD-1 mice [3] is below 0.5 mg/kg.

Take `CCCCCc1cc(O)c2c(c1)OC(C)(C)[C@@H]1CCC(C)=C[C@@H]21` [Δ9-THC, reference compound]: in the series on female CD-1 mice [4] (oral 100 mg/kg only, vs vehicle, p<0.05), the “antinociception in the hot plate test (% MPE)” value was “produced significant antinociception”. Further, the ring immobility entry in the series with female CD-1 mice [5] (setting [7]) is “produced significant”. Moreover, the “hypothermia (rectal temperature)” value with female CD-1 mice [6] (setting [7]) is on record as “produced significant”.

Regarding `COc1ccc2c(c1)c(CC(=O)O)c(C)n2C(=O)c1ccc(Cl)cc1` [indomethacin, reference compound], the “antinociception in the hot plate test (% MPE)” value with female CD-1 mice [4] (30 mg/kg oral) is on record as “did not significantly affect”. For the same compound, the ring immobility result in the series on female CD-1 mice [5] (30 mg/kg oral) was “did not significantly affect”. Further, the rectal temperature result in the series on female CD-1 mice [6] (30 mg/kg oral) is reported as “did not significantly affect”.
